This is an account of results in patent US11535598B2, “Histone deacetylases (HDACs) inhibitors” (ANNJI PHARMACEUTICAL CO., LTD., priority 2017, dated 2022).

The test system of data set [1] is LNCap. Description: Cell proliferation assay MTT, LNCaP. The note with it: read-out: Cytotoxicity IC50 Prostate LNCap, 72 hr treated.
Method: (§5) Cells were seeded in 96-well plates at a density of 5×10^3 cells per well and allowed to attach for 24 h before compound treatment. […] At end of the treatment period 72 h, 20 μl (5 mg/mL) 3-(4,5-dimethylthiazol-2-yl)-2,5-diphenyl-tetrazolium bromide (MTT) reagent was added each well. After 4 h incubation at 37° C., the supernatant was aspirated and the formazan crystals were dissolved in 100 μl of DMSO at 37° C. for 10 min with gentle agitation. The absorbance was measured at 570 nm using the Molecular Devices Microplate Reader. […] IC50 values were calculated from the relative viability values and concentrations by regression analysis.
Data set [2] deals with MV4-11. Description: Cell proliferation assay MTT, MV4-11. The note with it: read-out: Cytotoxicity IC50 Leukemia MV4-11; MTT assay, 72 hr treated.
Method: as §5
The test system of data set [3] is HL60. Description: Cell proliferation assay MTT, HL60. The note with it: read-out: Cytotoxicity IC50 Leukemia HL60, 72 hr treated.
Method: as §5
In data set [4] the target is Human HDAC6 (Homo sapiens (Human), UniProt Q9UBN7). Description: HDAC enzymatic assay, HDAC6. It is filed as biochemical. The following applies: 10-dose IC50 mode with a 3-fold serial dilution; read-out: HDAC subtypes IC50 HDAC6. As for the experimental part:
(§1) The IC50 values for aforementioned compounds against HDACs were determined. HDAC 1 to 11 can be assayed by using acetylated AMC-labeled peptide substrate.
(§2) Human HDAC1 GenBank Accession No. NM_004964): Full length with C-terminal GST tag, MW=79.9 kDa, Human HDAC2 (GenBank Accession No. Q92769): Full length with C-terminal His tag, MW=60 kDa. Human HDAC3/NcoR2 (GenBank Accession No. […] for HDAC3, GenBank Accession No. NM_006312 for NcoR2): Complex of human HDAC3, full length with C-terminal His tag, MW=49.7 kDa, and human NCOR2, N-terminal GST tag, MW=39 kDa. Human HDAC6 (GenBank Accession No. BC069243): Full length with N-terminal GST tag, MW=159 kDa. Human HDAC8 (GenBank Accession No. NM018486): Full length, MW=42 kDa, expressed in an E. coli expression system.
(§3) Human HDAC1, Human HDAC2, Human HDAC3/NcoR2, Human HDAC6, Human HDAC10, and Human HDAC11 were all expressed by baculovirus expression system in Sf9 cells.
(§4) 50 μM HDAC substrate. 1% DMSO final. Incubation for 2 hours at 30° C.

For data set [5], the target named is Human HDAC8 (Homo sapiens (Human), UniProt Q9BY41). Description: HDAC enzymatic assay, HDAC8. It is filed as biochemical. The following applies: 10-dose IC50 mode with a 3-fold serial dilution; read-out: HDAC subtypes IC50 HDAC8. As for the experimental part:
as §1, §2, §4

Data set [6] has as its system A549. Description: Cell proliferation assay MTT, A549. The note with it: read-out: Cytotoxicity IC50 Lung A549, 72 hr treated.
Method: as §5
Data set [7] in a line: in vitro. The following applies: monkey, Vero normal cells.
Method: as §5
Data set [8] addresses Human HDAC1 (Homo sapiens (Human), UniProt Q13547). Description: HDAC enzymatic assay, HDAC1. It is filed as biochemical. The note with it: 10-dose IC50 mode with a 3-fold serial dilution; read-out: HDAC subtypes IC50 HDAC1. As for the experimental part:
as §1, §2, §3, §4

Data set [9] relates to U87MG. Description: Cell proliferation assay MTT, U87MG. The note with it: read-out: Cytotoxicity IC50 Glioblastoma U87MG, 72 hr treated.
Method: as §5
Data set [10] deals with HepG2. Description: Cell proliferation assay MTT, HepG2. The note with it: read-out: Cytotoxicity IC50 Liver HepG2, 72 hr treated.
Method: as §5
Data set [11] deals with MOLM13. Description: Cell proliferation assay MTT, MOLM13. The following applies: read-out: Cytotoxicity IC50 Leukemia MOLM13; MTT assay, 72 hr treated. Background: Tetrazolium assays rely on reduction of a dye to a coloured formazan, in cell work by metabolically active cells.
Method: as §5
For data set [12], the system named is PANC1. Description: Cell proliferation assay MTT, PANC1. The note with it: read-out: Cytotoxicity IC50 Pancreas PANC1, 72 hr treated.
Method: as §5
A short description of data set [13]: in vitro. The note with it: human, FHs173We normal cells.
Method: as §5
The target of data set [14] is Human HDAC11 (Homo sapiens (Human), UniProt Q96DB2). Description: HDAC enzymatic assay, HDAC11. It is filed as biochemical. The note with it: 10-dose IC50 mode with a 3-fold serial dilution; read-out: HDAC subtypes IC50 HDAC11. As for the experimental part:
as §1, §2, §3, §4

Data set [15] deals with Vero. Description: Cell proliferation assay MTT, Vero normal cells. The note with it: read-out: Cytotoxicity IC50 Monkey normal Vero, 72 hr treated.
Method: as §5
Data set [16] deals with FHsWe. Description: Cell proliferation assay MTT, FHsWe normal cells. The following applies: read-out: Cytotoxicity IC50 Human normal FHsWe, 72 hr treated.
Method: as §5

Chain of Human HDAC6 (Q9UBN7 whole entry): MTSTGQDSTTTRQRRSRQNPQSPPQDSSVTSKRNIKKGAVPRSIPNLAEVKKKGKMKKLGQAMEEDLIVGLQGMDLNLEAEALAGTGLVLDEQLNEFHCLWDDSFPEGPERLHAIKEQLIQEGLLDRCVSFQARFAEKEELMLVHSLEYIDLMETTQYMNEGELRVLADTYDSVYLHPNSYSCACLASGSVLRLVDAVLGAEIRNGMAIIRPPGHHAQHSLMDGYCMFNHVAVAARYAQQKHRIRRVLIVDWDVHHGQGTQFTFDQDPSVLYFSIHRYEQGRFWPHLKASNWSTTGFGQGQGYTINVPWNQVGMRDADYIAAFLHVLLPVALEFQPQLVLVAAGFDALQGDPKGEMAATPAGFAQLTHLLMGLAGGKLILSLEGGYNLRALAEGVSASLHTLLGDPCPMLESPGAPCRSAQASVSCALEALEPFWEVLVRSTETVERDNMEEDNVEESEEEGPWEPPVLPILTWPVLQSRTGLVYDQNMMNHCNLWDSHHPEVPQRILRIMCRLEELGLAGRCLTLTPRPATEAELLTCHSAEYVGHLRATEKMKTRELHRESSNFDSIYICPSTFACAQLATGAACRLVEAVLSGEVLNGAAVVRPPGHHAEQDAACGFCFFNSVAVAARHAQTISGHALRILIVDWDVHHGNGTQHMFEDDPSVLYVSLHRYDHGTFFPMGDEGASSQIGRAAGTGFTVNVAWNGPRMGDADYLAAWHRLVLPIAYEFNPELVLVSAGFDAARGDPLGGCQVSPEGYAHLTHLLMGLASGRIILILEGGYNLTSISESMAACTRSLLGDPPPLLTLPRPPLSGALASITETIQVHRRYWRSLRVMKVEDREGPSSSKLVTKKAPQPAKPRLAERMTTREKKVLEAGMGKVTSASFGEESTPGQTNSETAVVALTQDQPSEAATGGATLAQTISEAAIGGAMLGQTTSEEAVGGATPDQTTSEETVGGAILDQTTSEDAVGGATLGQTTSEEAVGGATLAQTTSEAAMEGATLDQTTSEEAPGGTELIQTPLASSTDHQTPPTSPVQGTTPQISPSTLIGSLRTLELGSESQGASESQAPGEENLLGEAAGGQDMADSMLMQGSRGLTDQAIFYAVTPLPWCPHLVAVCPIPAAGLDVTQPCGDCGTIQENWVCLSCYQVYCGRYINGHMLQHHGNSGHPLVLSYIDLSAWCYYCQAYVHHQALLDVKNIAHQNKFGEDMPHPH
Chain of Human HDAC1 (Q13547 whole entry): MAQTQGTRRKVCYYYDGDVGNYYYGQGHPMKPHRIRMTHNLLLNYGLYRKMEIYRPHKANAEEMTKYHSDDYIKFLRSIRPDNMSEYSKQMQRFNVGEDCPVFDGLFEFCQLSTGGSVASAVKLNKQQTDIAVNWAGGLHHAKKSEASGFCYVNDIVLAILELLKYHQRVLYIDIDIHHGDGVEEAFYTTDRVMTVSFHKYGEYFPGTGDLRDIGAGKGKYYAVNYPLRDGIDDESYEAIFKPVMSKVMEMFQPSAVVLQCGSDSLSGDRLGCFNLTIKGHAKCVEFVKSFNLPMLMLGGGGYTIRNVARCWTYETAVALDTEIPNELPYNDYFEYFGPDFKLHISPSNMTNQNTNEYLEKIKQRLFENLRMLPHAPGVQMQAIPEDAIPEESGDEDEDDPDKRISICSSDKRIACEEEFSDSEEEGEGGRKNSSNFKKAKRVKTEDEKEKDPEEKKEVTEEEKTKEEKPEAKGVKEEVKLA
Chain of Human HDAC8 (Q9BY41 whole entry): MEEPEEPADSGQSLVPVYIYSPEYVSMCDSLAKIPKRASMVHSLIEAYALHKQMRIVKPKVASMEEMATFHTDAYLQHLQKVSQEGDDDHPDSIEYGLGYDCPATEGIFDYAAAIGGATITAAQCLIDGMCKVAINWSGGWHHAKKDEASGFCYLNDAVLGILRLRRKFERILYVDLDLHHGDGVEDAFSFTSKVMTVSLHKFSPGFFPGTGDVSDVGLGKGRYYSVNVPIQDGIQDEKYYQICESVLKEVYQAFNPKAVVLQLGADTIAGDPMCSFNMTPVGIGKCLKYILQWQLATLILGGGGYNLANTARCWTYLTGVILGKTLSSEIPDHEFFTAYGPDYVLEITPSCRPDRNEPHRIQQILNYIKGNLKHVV
Chain of Human HDAC11 (Q96DB2 whole entry): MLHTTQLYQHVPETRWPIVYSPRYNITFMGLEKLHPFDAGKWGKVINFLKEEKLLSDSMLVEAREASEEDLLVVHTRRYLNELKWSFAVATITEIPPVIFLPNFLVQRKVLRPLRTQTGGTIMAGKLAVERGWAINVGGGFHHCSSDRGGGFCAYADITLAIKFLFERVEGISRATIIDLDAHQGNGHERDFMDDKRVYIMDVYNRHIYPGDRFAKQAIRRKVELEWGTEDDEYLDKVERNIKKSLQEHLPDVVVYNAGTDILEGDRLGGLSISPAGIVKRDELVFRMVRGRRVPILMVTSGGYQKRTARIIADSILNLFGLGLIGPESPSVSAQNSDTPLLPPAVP

For orientation: IC50 means the concentration needed to halve the response being measured. For `N#Cc1ccc2c(=O)n(CCc3ccccc3)c(=O)n(Cc3ccc(C(=O)NO)cc3)c2c1` [Compound 3, 4-((7-cyano-2,4-dioxo-3-phenethyl-3,4-dihydroquinazolin-1(2H)-yl)methyl)-N-hydroxybenzamide], the IC50 was greater than 10 µM in data set [1]; greater than 10 µM in data set [2]; greater than 10 µM in data set [3]; 13.5 µM in data set [4]; 1.3 µM in data set [5]; greater than 10 µM in data set [6]. For the same molecule, the IC50 in data set [8] was 12 µM; in data set [9] it was greater than 10 µM; in data set [10], greater than 10 µM; in data set [11] it was greater than 10 µM; in data set [12] it was greater than 10 µM. For the same molecule, the IC50 at 72 h was greater than 10 µM in [7] and greater than 200 µM in data set [13].
On to `O=C(NO)c1ccc(Cn2c(=O)n(CCc3ccccc3)c(=O)c3ccccc32)cc1` [Compound 5, 4-((2,4-dioxo-3-phenethyl-3,4-dihydroquinazolin-1(2H)-yl)methyl)-N-hydroxybenzamide], for which the IC50 was determined as 0.44 ± 0.07 µM in data set [1]; 0.17 ± 0.05 µM in data set [2]; 0.25 ± 0.03 µM in data set [3]; 0.004 µM in data set [4]; 0.376 µM in data set [5]; 3.75 ± 0.39 µM in data set [6]. The IC50 in [8] came out at 11.2 µM; in data set [14], 13.9 µM; in data set [9], 1.56 ± 0.14 µM; in data set [10] it was 1.93 ± 0.25 µM; in [11], 0.16 ± 0.03 µM; in data set [12], 4.15 ± 0.27 µM. Further, the IC50 at 72 h in data set [7] was found to be 91.38 ± 0.47 µM; in [13], 83.21 ± 0.62 µM.
With `O=C(NO)c1ccc(Cn2c(=O)n(CCc3ccccc3)c(=O)c3ccc(C(F)(F)F)cc32)cc1` [Compound 13, 4-((2,4-dioxo-3-phenethyl-7-(trifluoromethyl)-3,4-dihydroquinazolin-1(2H)-yl)methyl)-N-hydroxybenzamide], the IC50 was determined as 5.92 ± 0.21 µM in data set [1]; 0.83 ± 0.11 µM in data set [2]; 0.87 ± 0.12 µM in data set [3]; 0.635 µM in [4]; 1.44 µM in data set [5]; 7.22 ± 0.29 µM in [6]. The IC50 amounted to 8.02 µM in data set [8]; 7.39 µM in data set [14]; 5.87 ± 0.14 µM in data set [9]; 5.48 ± 0.27 µM in data set [10]; 0.92 ± 0.07 µM in [11]; 8.29 ± 0.43 µM in data set [12]. Also, the IC50 at 72 h in data set [7] is 146.2 ± 0.41 µM; in [13], 131.7 ± 0.25 µM.
For the molecule `COc1ccccc1CCn1c(=O)c2ccccc2n(Cc2ccc(C(=O)NO)cc2)c1=O` [Compound 15, N-hydroxy-4-((3-(2-methoxyphenethyl)-2,4-dioxo-3,4-dihydroquinazolin-1(2H)-yl)methyl)benzamide], the IC50 was 5.71 ± 0.32 µM in data set [1]; 1.65 ± 0.03 µM in [2]; 1.22 ± 0.08 µM in [3]; 0.011 µM in data set [4]; 0.525 µM in data set [5]; 5.69 ± 0.21 µM in data set [6]. In addition, the IC50 is 34.4 µM in [14]; 7.08 ± 0.8 µM in data set [9]; 7.11 ± 0.28 µM in [10]; 1.47 ± 0.07 µM in data set [11]; greater than 10 µM in data set [12]. Also, the IC50 at 72 h in data set [7] is 96.92 ± 0.11 µM; in data set [13] it was 55.44 ± 0.09 µM.
For `O=C(CCCCCCC(=O)Nc1ccccc1)NO` [SAHA, reference compound], the IC50 is 1.85 ± 0.08 µM in data set [3] and 26.6 µM in [15].
Turning to `CN1CCc2c(c3ccccc3n2Cc2ccc(C(=O)NO)cc2)C1` [Tubastatin A, reference compound], the IC50 in [1] was greater than 10 µM; in data set [16], 46.5 µM; in [6], greater than 10 µM; in [9], greater than 10 µM; in data set [10], greater than 10 µM; in [15] it was 39.9 µM. For the same molecule, the IC50 in data set [12] is greater than 10 µM.
